What was measured:
Assay in all cases: relative viability (nuclei count vs DMSO), 5 days (fraction); higher = more cells survive
IU1-47 + Lapatinib = compound: CC1=CC(=C(N1C2=CC=C(C=C2)Cl)C)C(=O)CN3CCCCC3 [IU1-47] + CS(=O)(=O)CCNCc1ccc(-c2ccc3ncnc(Nc4ccc(OCc5cccc(F)c5)c(Cl)c4)c3c2)o1 [Lapatinib] (partner 2 µM)
Procedure, shortened: (§1)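 Five library-drug doses in √10 steps were combined with a fixed anchor-drug dose, or a single drug was given alone, by pin tool to lung cancer cell lines in 1536-well plates the day after seeding. Nuclei were stained and counted after 5 days. Relative viability is the nuclei count in treated wells over that in vehicle wells, taken as the median of duplicate plates.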

FG-4592 + OSI-027 = compound: Cc1nc(C(=O)NCC(=O)O)c(O)c2ccc(Oc3ccccc3)cc12 [FG-4592] + COc1cccc2cc(-c3nc([C@H]4CC[C@H](C(=O)O)CC4)n4ncnc(N)c34)[nH]c12 [OSI-027] (partner 0.5 µM)
Procedure, shortened: as §1

FG-4592 + AZD7762 = compound: Cc1nc(C(=O)NCC(=O)O)c(O)c2ccc(Oc3ccccc3)cc12 [FG-4592] + NC(=O)Nc1cc(-c2cccc(F)c2)sc1C(=O)N[C@H]1CCCNC1 [AZD7762] (partner 0.2 µM)
Procedure, shortened: as §1

IU1-47 + Foretinib = compound: CC1=CC(=C(N1C2=CC=C(C=C2)Cl)C)C(=O)CN3CCCCC3 [IU1-47] + COc1cc2c(Oc3ccc(NC(=O)C4(C(=O)Nc5ccc(F)cc5)CC4)cc3F)ccnc2cc1OCCCN1CCOCC1 [Foretinib] (partner 0.25 µM)
Procedure, shortened: as §1

| Cell Line | relative viability (IU1-47 + Lapatinib; first compound 0.08 µM) | relative viability (IU1-47 + Lapatinib; first compound 0.253 µM) | relative viability (IU1-47 + Lapatinib; first compound 0.8 µM) | relative viability (IU1-47 + Lapatinib; first compound 8 µM) | relative viability (FG-4592 + OSI-027; first compound 0.08 µM) | relative viability (FG-4592 + OSI-027; first compound 0.253 µM) | relative viability (FG-4592 + OSI-027; first compound 0.8 µM) | relative viability (FG-4592 + OSI-027; first compound 2.53 µM) | relative viability (FG-4592 + OSI-027; first compound 8 µM) | relative viability (FG-4592 + AZD7762; first compound 0.08 µM) | relative viability (FG-4592 + AZD7762; first compound 0.253 µM) | relative viability (FG-4592 + AZD7762; first compound 0.8 µM) | relative viability (FG-4592 + AZD7762; first compound 2.53 µM) | relative viability (FG-4592 + AZD7762; first compound 8 µM) | relative viability (IU1-47 + Foretinib; first compound 0.08 µM) | relative viability (IU1-47 + Foretinib; first compound 0.253 µM) | relative viability (IU1-47 + Foretinib; first compound 0.8 µM) | relative viability (IU1-47 + Foretinib; first compound 2.53 µM) | relative viability (IU1-47 + Foretinib; first compound 8 µM) | relative viability (IU1-47 + Lapatinib; first compound 2.53 µM) |
| --- | --- | --- | --- | --- | --- | --- | --- | --- | --- | --- | --- | --- | --- | --- | --- | --- | --- | --- | --- | --- |
| 201T | 1.04 | 1 | 1.05 | 0.957 | 0.683 | 0.662 | 0.738 | 0.815 | 0.704 | 0.579 | 0.595 | 0.453 | 0.559 | 0.555 | 1.31 | 1.22 | 1.26 | 1.05 | 1.09 | – |
| A549 | 0.987 | 1.1 | 0.92 | 0.858 | – | – | – | – | – | – | – | – | – | – | 0.9 | 1.09 | 0.983 | 1.08 | 0.889 | 1.08 |
| A-427 | 1.01 | 0.994 | 0.977 | 0.873 | 0.479 | 0.393 | 0.506 | 0.423 | 0.598 | 0.757 | 0.777 | 0.665 | 0.773 | 0.717 | 1.08 | 1.16 | 1.22 | – | 0.93 | – |
| ABC-1 | 1.45 | 1.08 | 1.06 | 1.12 | 0.548 | 0.482 | 0.47 | 0.501 | 0.4 | 0.665 | 0.762 | 0.794 | 1.09 | 0.693 | 1.1 | 0.985 | 1.06 | – | 1.07 | 0.821 |
| BEN | 0.723 | 0.816 | 1.09 | 0.633 | 0.222 | 0.287 | 0.315 | 0.313 | 0.299 | 0.555 | 0.617 | 0.476 | 0.666 | 0.527 | 0.618 | 0.676 | 0.646 | – | 0.61 | 0.617 |
| CAL-12T | 0.683 | 0.765 | 0.744 | 0.763 | 0.829 | 0.663 | 0.642 | 0.49 | 0.333 | 0.594 | 0.59 | 0.513 | 0.523 | 0.717 | 1.12 | 1.1 | 1.13 | 1.11 | 1.03 | 0.591 |
| COR-L23 | 1.19 | 1.12 | 1.07 | 0.892 | 0.798 | 0.617 | 0.793 | 0.701 | 0.468 | – | – | – | – | – | 1.14 | 1.09 | 1.08 | 1.02 | 1.16 | 0.92 |
| COR-L 105 | 0.312 | 0.405 | 0.382 | 0.333 | 0.555 | 0.602 | 0.767 | 0.551 | 0.435 | – | – | – | – | – | 0.907 | 1.14 | 1.22 | 1.2 | 1.4 | 0.328 |
| Calu-6 | 1.14 | 1.23 | 1.11 | 0.94 | – | – | – | – | – | – | – | – | – | – | 1 | 1.01 | 0.934 | 0.917 | 0.874 | 1.18 |
| ChaGo-K-1 | – | – | – | – | 0.577 | 0.545 | 0.532 | 0.471 | 0.413 | 0.846 | 0.888 | 0.856 | 0.93 | 0.66 | 0.967 | 0.934 | 0.954 | 0.979 | 0.81 | – |
